Ends that are not written are not given here.
Columns and labels:
human Nav1.6 [1] = molecular target: T1, human Nav1.6 (Homo sapiens, UniProt Q9UQD0); format: cell-based
[2] = tested on: injury-induced pain (formalin); settings: rat, in vivo
[3] = tested on: CFA-induced thermal hyperalgesia; design: species or system mice; settings: mouse, in vivo; for CFA-induced thermal hyperalgesia (thermal latency, Hargreaves test): sc
[4] = tested on: CFA-induced tactile allodynia; design: species or system mice; settings: mouse, in vivo
[5] = tested on: carrageenan-induced thermal hyperalgesia; design: species or system mice; settings: mouse, in vivo
acute thermal pain [6] = settings: rat, in vivo
acute thermal pain [7] = settings: rat, in vivo; remark: listed apart in the source
thermal pain = tested on: thermal pain; design: species or system mice; settings: in vivo
human Nav1.7 = human Nav1.7 (Homo sapiens, UniProt Q15858, W1161R); format: cell-based
human Nav1.6 [8] = molecular target: T1, human Nav1.6; assay: cell-based or functional assay
human Nav1.7 (human) = human Nav1.7 (human) (UniProt Q15858); assay: cell-based or functional assay

T1 sequence (Q9UQD0 whole entry): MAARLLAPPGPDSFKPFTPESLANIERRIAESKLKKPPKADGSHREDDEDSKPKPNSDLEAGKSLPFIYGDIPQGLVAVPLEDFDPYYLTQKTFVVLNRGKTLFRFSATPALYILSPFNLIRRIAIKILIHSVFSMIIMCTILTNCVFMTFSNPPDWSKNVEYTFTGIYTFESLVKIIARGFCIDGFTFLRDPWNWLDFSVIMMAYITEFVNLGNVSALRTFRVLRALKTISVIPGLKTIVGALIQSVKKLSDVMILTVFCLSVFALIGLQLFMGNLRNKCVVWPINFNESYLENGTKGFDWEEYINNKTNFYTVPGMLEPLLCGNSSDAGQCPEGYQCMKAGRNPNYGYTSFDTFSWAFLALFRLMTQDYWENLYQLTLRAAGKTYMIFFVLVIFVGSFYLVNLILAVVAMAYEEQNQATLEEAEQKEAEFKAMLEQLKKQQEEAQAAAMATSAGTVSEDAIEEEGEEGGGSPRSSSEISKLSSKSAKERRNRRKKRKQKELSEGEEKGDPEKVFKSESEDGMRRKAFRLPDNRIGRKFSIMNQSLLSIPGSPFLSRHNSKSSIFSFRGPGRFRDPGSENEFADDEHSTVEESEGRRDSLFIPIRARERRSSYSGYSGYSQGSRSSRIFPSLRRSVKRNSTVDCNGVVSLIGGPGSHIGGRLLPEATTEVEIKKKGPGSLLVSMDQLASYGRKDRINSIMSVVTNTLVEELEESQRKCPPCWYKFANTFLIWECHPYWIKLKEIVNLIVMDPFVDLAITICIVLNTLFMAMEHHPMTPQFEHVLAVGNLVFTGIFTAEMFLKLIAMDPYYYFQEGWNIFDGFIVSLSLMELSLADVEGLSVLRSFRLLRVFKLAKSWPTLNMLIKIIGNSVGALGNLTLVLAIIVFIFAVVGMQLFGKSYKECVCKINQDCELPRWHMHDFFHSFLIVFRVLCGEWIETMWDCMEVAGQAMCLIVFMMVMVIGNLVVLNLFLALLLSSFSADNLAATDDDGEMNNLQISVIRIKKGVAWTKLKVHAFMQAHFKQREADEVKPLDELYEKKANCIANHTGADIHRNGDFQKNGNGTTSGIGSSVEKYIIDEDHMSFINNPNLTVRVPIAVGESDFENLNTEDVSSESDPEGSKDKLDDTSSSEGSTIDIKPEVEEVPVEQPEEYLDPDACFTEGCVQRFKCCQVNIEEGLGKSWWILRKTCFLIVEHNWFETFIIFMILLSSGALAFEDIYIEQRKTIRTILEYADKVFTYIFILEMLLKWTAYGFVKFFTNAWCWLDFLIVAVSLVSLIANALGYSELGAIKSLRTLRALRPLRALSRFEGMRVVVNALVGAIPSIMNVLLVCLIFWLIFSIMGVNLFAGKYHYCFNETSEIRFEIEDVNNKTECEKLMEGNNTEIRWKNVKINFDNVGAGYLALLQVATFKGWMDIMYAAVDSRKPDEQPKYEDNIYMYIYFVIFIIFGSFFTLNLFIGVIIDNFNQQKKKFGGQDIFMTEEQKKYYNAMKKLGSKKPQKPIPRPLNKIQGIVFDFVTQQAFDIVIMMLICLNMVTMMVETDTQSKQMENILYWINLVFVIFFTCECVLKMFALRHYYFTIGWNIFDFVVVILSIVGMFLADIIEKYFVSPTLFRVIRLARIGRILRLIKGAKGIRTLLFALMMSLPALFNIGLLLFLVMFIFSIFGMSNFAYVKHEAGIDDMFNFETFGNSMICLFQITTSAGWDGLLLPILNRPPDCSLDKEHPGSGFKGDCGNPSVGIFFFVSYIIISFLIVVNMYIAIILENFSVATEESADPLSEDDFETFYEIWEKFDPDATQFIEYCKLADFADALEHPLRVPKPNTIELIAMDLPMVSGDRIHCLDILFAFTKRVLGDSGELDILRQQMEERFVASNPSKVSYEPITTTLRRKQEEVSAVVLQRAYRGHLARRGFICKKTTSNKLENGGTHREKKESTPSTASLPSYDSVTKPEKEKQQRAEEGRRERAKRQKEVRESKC

Ac-QCQKWMQTCDAERKCCEGFSCTLWCKKKLW-NH2 [(-GP) N-Ac-NV1D2974-NH2]
selectivity towards Nav1.7 compared to recombinant Protoxin-II (human Nav1.6 [1]): improved selectivity

Ac-QCQKWMQTCDRERKCCEGFVCTLWCRKKLW-NH2 [(-GP) N-Ac-NV1D3034-NH2]
selectivity towards Nav1.7 compared to recombinant Protoxin-II (human Nav1.6 [1]): improved selectivity

GPACQKWMQTCDANRKCCEGFSCRLWCKKKLW-OH (cysteine pairing not given here) [NV1D3587]
selectivity towards Nav1.7 compared to recombinant Protoxin-II (human Nav1.6 [1]): improved selectivity

GPACQKWMQTCDRNRKCCEGFVCTLWCRKKLW-OH (cysteine pairing not given here) [NV1D3541]
selectivity towards Nav1.7 compared to recombinant Protoxin-II (human Nav1.6 [1]): improved selectivity

GPQCQKWMQSCDRERKCCEGFVCTLWCRKKLW-OH (cysteine pairing not given here) [NV1D3359]
selectivity towards Nav1.7 compared to recombinant Protoxin-II (human Nav1.6 [1]): improved selectivity

GPQCQKWMQTCDAERKCCEGFSCTLWCKKKLW-NH2 [NV1D2974-NH2]
selectivity towards Nav1.7 compared to recombinant Protoxin-II (human Nav1.6 [1]): improved selectivity

GPQCQKWMQTCDAERKCCEGFSCTLWCKKKLW-OH (cysteine pairing not given here) [NV1D2974]
selectivity towards Nav1.7 compared to recombinant Protoxin-II (human Nav1.6 [1]): improved selectivity

GPQCQKWMQTCDAERKCCEGFVCRLWCKKKLW-NH2 [NV1D2775-NH2]
selectivity towards Nav1.7 compared to recombinant Protoxin-II (human Nav1.6 [1]): improved selectivity

GPQCQKWMQTCDAERKCCEGFVCRLWCKKKLW-OH (cysteine pairing not given here) [NV1D2775]
formalin test flinches [2]: significant efficacy | anti-hyperalgesic effect first seen, time post-pump implantation [3]: 4 h | thermal latency returned to the control level, time post pump implantation [3]: ≤ 48 h | time at which the effect reached the maximum, thermal test [3]: 8 h | CFA-induced thermal hyperalgesia (thermal latency, Hargreaves test) [3]: reached values close to the cut-off | tactile threshold returned to the control level, time post pump implantation [4]: ≤ 48 h | time at which the effect reached the maximum, tactile test [4]: 8 h | analgesia (thermal withdrawal latency) in the carrageenan study [5]: significant analgesia | tail flick test latency (acute thermal pain [6]): significant efficacy | hot plate test latency (acute thermal pain [7]): significant efficacy | analgesia in the mouse hotplate test (FIG. 8) (thermal pain): significant analgesia | hotplate latency (thermal pain; mouse): reached values near cut-off

GPQCQKWMQTCDARRKCCEGFVCRLWCKKKLW-OH (cysteine pairing not given here) [NV1D3006]
hNav1.7 QP % blk (human Nav1.7): 52.3% @ 10 nM

GPQCQKWMQTCDRERKCCEGFVCTLWCRKKLW-NH2 [NV1D3034-NH2]
selectivity towards Nav1.7 compared to recombinant Protoxin-II (human Nav1.6 [1]): improved selectivity

GPQCQKWMQTCDRERKCCEGFVCTLWCRKKLW-NH-butyl [NV1D3034-NH-butyl]
selectivity towards Nav1.7 compared to recombinant Protoxin-II (human Nav1.6 [1]): improved selectivity

GPQCQKWMQTCDRERKCCEGFVCTLWCRKKLW-NH-methyl [NV1D3034-NH-methyl]
selectivity towards Nav1.7 compared to recombinant Protoxin-II (human Nav1.6 [1]): improved selectivity | CFA-induced thermal hyperalgesia [3]: readily reversed

GPQCQKWMQTCDRERKCCEGFVCTLWCRKKLW-OH (cysteine pairing not given here) [NV1D3034]
formalin test flinches [2]: significant efficacy | CFA-induced thermal hyperalgesia (thermal latency, Hargreaves test) [3]: completely reversed | tail flick test latency (acute thermal pain [6]): significant efficacy | hot plate test latency (acute thermal pain [7]): significant efficacy

GPQCQKWMQTCDRERKCCEGFVCTLWCRKKLWGSAPAPAPAPAPGSCCNCSSKWCRDHSRCC [NV1D3799]
hNav1.7 QP % blk (human Nav1.7): 22.2% @ 30 nM

GPQCQKWMQTCDRERKCCQGFVCTLWCRKKLW-OH (cysteine pairing not given here) [NV1D3388]
selectivity towards Nav1.7 compared to recombinant Protoxin-II (human Nav1.6 [1]): improved selectivity

GPQCQKWMQTCDRNRKCCEGFVCTLWCRKKLW-OH (cysteine pairing not given here) [NV1D3044]
selectivity towards Nav1.7 compared to recombinant Protoxin-II (human Nav1.6 [1]): improved selectivity

GPQCQKWMQTCDRTRKCCEGFVCTLWCRKKLW-NH2 [NV1D3368-NH2]
selectivity towards Nav1.7 compared to recombinant Protoxin-II (human Nav1.6 [1]): improved selectivity | CFA-induced thermal hyperalgesia [3]: readily reversed

GPQCQKWMQTCDRTRKCCEGFVCTLWCRKKLW-OH (cysteine pairing not given here) [NV1D3368]
selectivity towards Nav1.7 compared to recombinant Protoxin-II (human Nav1.6 [1]): improved selectivity | CFA-induced thermal hyperalgesia (thermal latency, Hargreaves test) [3]: fully reversed

GPYCQKWMQTCDANRKCCEGFSCRLWCKKKLW-NH2 [NV1D3586-NH2]
selectivity towards Nav1.7 compared to recombinant Protoxin-II (human Nav1.6 [1]): improved selectivity

GPYCQKWMQTCDANRKCCEGFSCRLWCKKKLW-OH (cysteine pairing not given here) [NV1D3586]
selectivity towards Nav1.7 compared to recombinant Protoxin-II (human Nav1.6 [1]): improved selectivity

recombinant Protoxin-II (peptide)
IC50 (QPatch electrophysiology assay) (human Nav1.6 [8]): 6.2e-08 M | ratio of IC50 for Nav1.6 to IC50 for Nav1.7 (QPatch) (human Nav1.6 [8]): 28 fold

wild type Protoxin-II (peptide)
IC50 (FLIPR assay, veratridine-induced membrane depolarization) (human Nav1.7 (human)): 4 nM

From patent publication US20160287666A1 (priority 2015, published 2016)
